Assay results from patent US10981932B2, “Macrocyclic indole derivatives” (Bayer Aktiengesellschaft, priority 2016, dated 2021).
Where “and” joins values, the source holds several entries; their conditions need not be identical. Equal values may be shown once. Where a name gives a salt, the structure may show the parent alone. Read-outs that look alike come from different tables or passages of the source.

Columns and labels:
[1] = tested on: SUDHL5; assay: Induction of cytotoxicity (CellTiter-Glo, 5 h), SUDHL5
[2] = tested on: SUDHL10; assay: Anti-proliferative effect (CellTiter-Glo, 72 h), SUDHL10; assay type: cell-based; settings: SUDHL10 cells, antiproliferation, median, read-out: Antiproli SUDHL10 [M] (median)
How it was run: (§1)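 Endpoint: CellTiter-Glo luminescence, 10 min after reagent addition. Treatment ran 72 h at 37 °C, humidified. Growth was referenced to a separately plated day 0 plate.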

[3] = tested on: SUDHL5; assay: Induction of caspase-3/7 activity (Caspase-Glo 3/7), SUDHL5; assay type: cell-based; settings: caspase-3/7 induction, SUDHL5 cells, 3 h treatment, median
How it was run: (§2)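 A 3 h, 37 °C compound incubation precedes the Caspase-Glo 3/7 read. After subtracting medium-only signal, EC50s are fitted against the reference compound's maximal caspase induction.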

[4] = tested on: SUDHL5; assay: Anti-proliferative effect (CellTiter-Glo, 72 h), SUDHL5; assay type: cell-based; settings: SUDHL5 cells, antiproliferation, median, read-out: Antiproli SUDHL5 [M] (median)
How it was run: as §1

[5] = tested on: MV-4-11; assay: Anti-proliferative effect (CellTiter-Glo, 72 h), MV-4-11; assay type: cell-based; settings: MV-4-11 cells, median, read-out: IC50 antiproliferation assay MV-4-11 [M] (median)
How it was run: as §1

[6] = tested on: SUDHL10; assay: Induction of caspase-3/7 activity (Caspase-Glo 3/7), SUDHL10; assay type: cell-based; settings: caspase-3/7 induction, SUDHL10 cells, 3 h treatment, median
How it was run: as §2

[7] = molecular target: MCL-1 (Homo sapiens, UniProt Q07820); assay: Protein-protein interaction assay MCL-1/Noxa BH3 peptide (MCL-1 assay), TR-FRET; assay type: binding; settings: MBP-MCL-1 / Noxa BH3-derived peptide, median
Sequence of MCL-1 (Q07820 whole entry): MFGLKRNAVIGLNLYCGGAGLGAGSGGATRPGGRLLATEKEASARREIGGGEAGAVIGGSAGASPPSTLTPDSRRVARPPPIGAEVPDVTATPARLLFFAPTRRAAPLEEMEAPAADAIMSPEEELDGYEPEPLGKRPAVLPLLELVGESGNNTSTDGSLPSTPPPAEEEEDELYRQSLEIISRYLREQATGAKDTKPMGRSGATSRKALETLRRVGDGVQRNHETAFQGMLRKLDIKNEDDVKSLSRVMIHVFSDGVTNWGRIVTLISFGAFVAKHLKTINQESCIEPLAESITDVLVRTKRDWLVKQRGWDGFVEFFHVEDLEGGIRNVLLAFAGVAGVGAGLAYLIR
How it was run: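 Steady-state competition, MCL-1/Noxa BH3, TR-FRET readout; 1 nM MBP-MCL-1, 11-point dose series 0.1 nM–20 μM; overnight 4 °C equilibration; 4-parameter IC50.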

[8] = tested on: SUDHL10; assay: Induction of cytotoxicity (CellTiter-Glo, 5 h), SUDHL10
[9] = tested on: A2780; assay: Anti-proliferative effect (CellTiter-Glo, 72 h), A2780; assay type: cell-based; settings: A2780 cells, median, read-out: IC50 antiproliferation assay A2780 [M] (median)
How it was run: as §1

[10] = Homo sapiens, SU-DHL-5, 5 h, read-out: Cytotox SUDHL5 [M] (median), SUDHL5 cells, cytotoxicity induction, CellTiter-Glo, 5 h incubation, median
[11] = Homo sapiens, SU-DHL10, 72 h, 72 h incubation
[12] = Homo sapiens, SU-DHL-5, 72 h, 72 h incubation
[13] = Homo sapiens, SU-DHL10, 5 h, read-out: Cytotox SUDHL10 [M] (median), SUDHL10 cells, cytotoxicity induction, CellTiter-Glo, 5 h incubation, median
[14] = Homo sapiens, SU-DHL-5, 5 h, read-out: Cytotox SUDHL5 [M] (median), SUDHL5 cells, cytotoxicity induction, CellTiter-Glo, 5 h, median
[15] = Homo sapiens, SU-DHL-5, 72 h, 72 h
[16] = Homo sapiens, SU-DHL10, 5 h, read-out: Cytotox SUDHL10 [M] (median), SUDHL10 cells, cytotoxicity induction, CellTiter-Glo, 5 h, median
[17] = read-out: Cytotox SUDHL5 [M] (median), SUDHL5 cells, cytotoxicity induction, CellTiter-Glo, 5 h incubation, median
[18] = read-out: Cytotox SUDHL10 [M] (median), SUDHL10 cells, cytotoxicity induction, CellTiter-Glo, 5 h incubation, median
[19] = read-out: Cytotox SUDHL5 [M] (median), SUDHL5 cells, cytotoxicity induction, CellTiter-Glo, 5 h, median
[20] = read-out: Cytotox SUDHL10 [M] (median), SUDHL10 cells, cytotoxicity induction, CellTiter-Glo, 5 h, median

EC50 ([3]; Homo sapiens, SU-DHL-5, 3 h) | IC50 [4, 12] | IC50 ([5]; Homo sapiens, MV4-11, 72 h) | EC50 ([6]; Homo sapiens, SU-DHL10, 3 h) | IC50 [7] | IC50 ([9]; Homo sapiens, A2780, 72 h) | EC50 [3] | EC50 [6] | IC50 [9] | SMILES | IC50 [1, 10] | IC50 [8, 13] | other results
6.7 µM | 5.74e-06 M | 7.59e-06 M | 18.6 µM | 0.00867 µM | 2.83e-05 M | – | – | – | O=C(O)c1c(CCCOc2cccc3ccccc23)c2cccc3c2n1CCCCOCc1nn2c(c1-3)CCCC2 (racemic) [Example 253, (rac)-1-[3-(naphthalen-1-yloxy)propyl]-4,5,6,7,12,13,14,15-octahydro-9H-pyrido[1″,2″:1′,5′]pyrazolo[4′,3′:9,10][1,6]oxazacycloundecino[8,7,6-hi]indole-2-carboxylic Acid] | 6.7e-06 M | 1.96e-05 M | IC50 [2, 11]: 1.17e-05 M
4.07 µM | 5.85e-06 M | 1.2e-05 M | 10.3 µM | 0.00756 µM | 1.22e-05 M | – | – | – | Cc1ccc2c(C(C)CCOc3cccc4cc(F)ccc34)c(C(=O)O)n3c2c1-c1c(nn(C)c1C)COCCCC3 (racemic) [Example 276, 7-{4-[(6-fluoronaphthalen-1-yl)oxy]butan-2-yl}-2,3,4-trimethyl-2,10,11,12,13,15-hexahydropyrazolo[4′3′:9,10][1,6]oxazacycloundecino[8,7,6-hi]indole-8-carboxylic Acid] | 5.23e-06 M | 1.03e-05 M | IC50 [2, 11]: 7.32e-06 M
1.84 µM | 2.82e-06 M | 8.62e-06 M | 3.73 µM | 0.00221 µM | 1.52e-05 M | – | – | – | Cc1c2c(nn1CCN1CCOCC1)COCCCCn1c(C(=O)O)c(CCCOc3cccc4cc(F)ccc34)c3cccc-2c31 (racemic) [Example 284, (rac)-7-{3-[(6-fluoronaphthalen-1-yl)oxy]propy}-3-methyl-2-[2-(morpholin-4-yl)ethyl]-2,10,11,12,13,15-hexahydropyrazolo[4′,3′:9,10][1,6]oxazacycloundecino[8,7,6-hi]indole-8-carboxylic Acid] | 2.46e-06 M | 4.25e-06 M | IC50 [2, 11]: 7.01e-06 M
5.14 µM | – | 1.49e-05 M | 13 µM | 0.00206 µM | 3.05e-05 M | – | – | – | CCc1nn(C)c2c1-c1cccc3c(CCCOc4cccc5cc(F)ccc45)c(C(=O)O)n(c13)CCCCOC2 (racemic) [Example 287, (rac)-3-ethyl-7-{3-[(6-fluoronaphthalen-1-yl)oxy]propyl}-1-methyl-1,10,11,12,13,15-hexahydropyrazolo[4′,3′:9,10][1,6]oxazacycloundecino[8,7,6-hi]indole-8-carboxylic Acid] | – | – | IC50 [1, 14]: 5.19e-06 M; IC50 ([2]; Homo sapiens, SU-DHL10, 72 h, 72 h): 8.1e-06 M; IC50 [4, 15]: 7.2e-06 M; IC50 [8, 16]: 1.58e-05 M
– | – | 5e-06 M | – | 0.00637 µM | – | 7.34 µM | 19.9 µM | 2.15e-05 M and > 3.3e-05 M | Cn1nc(COc2cncnc2)c2c1COCCCCn1c(C(=O)O)c(CCCOc3cccc4ccccc34)c3cccc-2c31 (single isomer, unassigned) [Example 212, 1-methyl-7-[3-(naphthalen-1-yloxy)propyl]-3-[(pyrimidin-5-yloxy)methyl]-1,10,11,12,13,15-hexahydropyrazolo[4′,3′:9,10][1,6]oxazacycloundecino[8,7,6-hi]indole-8-carboxylic Acid] | – | – | IC50 [1, 17]: 6.68e-06 M; IC50 ([2]; 72 h incubation): 3.63e-06 M; IC50 ([4]; 72 h incubation): 5.11e-06 M; IC50 [8, 18]: 2.02e-05 M
– | – | 1.04e-05 M | – | 0.0037 µM | – | 4.79 µM | 17.2 µM | 3.16e-05 M and > 3.3e-05 M | O=C(O)c1c(CCCOc2cccc3ccccc23)c2cccc3c2n1CCCCOCc1nn2c(c1-3)COCC2 (single isomer, unassigned) [Example 252, 1-[3-(naphthalen-1-yloxy)propyl]-4,5,6,7,12,13-hexahydro-9H,15H-[1,4]oxazino[4″,3″:1′,5′]pyrazolo[4′,3′:9,10][1,6]oxazacycloundecino[8,7,6-hi]indole-2-carboxylic acid-N-ethylethanamine Salt] | – | – | IC50 [1, 17]: 5.17e-06 M; IC50 ([2]; 72 h incubation): 6.31e-06 M; IC50 ([4]; 72 h incubation): 8.78e-06 M; IC50 [8, 18]: 2.09e-05 M
– | – | – | – | 2.03 µM | – | > 33 µM | > 33 µM | > 3.3e-05 M | COc1ccc2c(CCCOc3cccc4ccccc34)c(C(=O)O)n3c2c1-c1c(nn(C)c1C)COCCCC3 (single isomer, unassigned; enantiomer 2) [Example 351, 4-methoxy-2,3-dimethyl-7-[3-(naphthalen-1-yloxy)propyl]-2,10,11,12,13,15-hexahydropyrazolo[4′,3′:9,10][1,6]oxazacycloundecino[8,7,6-hi]indole-8-carboxylic acid-N-ethylethanamine Salt (Enantiomer 2)] | – | – | IC50 [1, 19]: > 3.3e-05 M; IC50 ([4]; 72 h): 2.07e-05 M; IC50 [5]: > 3.3e-05 M; IC50 [8, 20]: > 3.3e-05 M
– | – | – | – | 1.28 µM | – | > 33 µM | > 33 µM | 2.17e-05 M | COc1ccc2c(CCCOc3cccc4ccccc34)c(C(=O)O)n3c2c1-c1c(C)nn(C)c1COCCCC3 (single isomer, unassigned; enantiomer 2) [Example 353, 4-methoxy-1,3-dimethyl-7-[3-(naphthalen-1-yloxy)propyl]-1,10,11,12,13,15-hexahydropyrazolo[4′,3′:9,10][1,6]oxazacycloundecino[8,7,6-hi]indole-8-carboxylic Acid Ammonium Salt (Enantiomer 2)] | – | – | IC50 [1, 19]: > 3.3e-05 M; IC50 ([4]; 72 h): 8.32e-06 M; IC50 [5]: 3.11e-05 M; IC50 [8, 20]: > 3.3e-05 M
5.55 µM | 5.65e-06 M | 1.35e-05 M | 15.7 µM | 0.00499 µM | 1.9e-05 M | – | – | – | Cc1nn(C)c2c1-c1cccc3c(CCCOc4cccc5ccccc45)c(C(=O)O)n(c13)CCCCCN(C)C2 [Example 237, (rac)-1,3,15-Trimethyl-7-[3-(naphthalen-1-yloxy)propyl]-1,10,11,12,13,14,15,16-octahydropyrazolo[4′,3′:4,5][1,7]diazacyclododecino[3,2,1-hi]indole-8-carboxylic Acid] | 6.6e-06 M | 1.18e-05 M | –
11.6 µM | 1.19e-05 M | 2.56e-05 M | > 33 µM | 0.00885 µM | > 3.3e-05 M | – | – | – | Cc1nn(C)c2c1-c1cccc3c(CCCOc4cccc5c4CCCC5)c(C(=O)O)n(c13)CCCCCN(C)C2 [Example 240, (rac)-1,3,15-Trimethyl-7-[3-(5,6,7,8-tetrahydronaphthalen-1-yloxy)propyl]-1,10,11,12,13,14,15,16-octahydropyrazolo[4′,3′:4,5][1,7]diazacyclododecino[3,2,1-hi]indole-8-carboxylic Acid] | 1.26e-05 M | > 3.3e-05 M | –
24.2 µM | – | 2.42e-05 M | > 33 µM | 0.0633 µM | 1.69e-05 M | – | – | – | Cc1nn(C)c2c1-c1cccc3c(CCCOc4cccc5cc(C(F)(F)F)ccc45)c(C(=O)O)n(c13)CCCCOC2 [Example 364, (rac)-10,12-dimethyl-1-(3-((6-(trifluoromethyl)naphthalen-1-yl)oxy)propyl) -4,5,67,9,10-hexahydropyrazolo[4′,3′:9,10][1,6]oxaazacycloundecino[8,7,6-hi]indole-2-carboxylic Acid] | – | – | IC50 [1, 14]: 1.92e-05 M; IC50 [4, 15]: 9.54e-06 M; IC50 [8, 16]: > 3.3e-05 M; IC50 [8, 20]: 2.04e-05 M
